Laboratory results from the supplement of paper PMC11061612.

Key:
[1] = test system: MDA-MB-415 (Breast Carcinoma); assay: Bliss excess, mean over the matrix (fraction); higher = more synergy
Outline: (§1)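 Bliss excess equals the observed combination effect minus the expected value EA + EB − EA·EB, where EA and EB are the effects of each agent alone. Combination Emax is the second-highest inhibition within the matrix. Inhibition was scaled from CellTiter-Glo 2.0 luminescence, with 0 set by vehicle wells and 1 by blank wells, after 72 hours of two-drug dosing of cells plated in 1536-well plates.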

[2] = test system: BHT-101 (Thyroid Gland Carcinoma); assay: as above
Outline: as §1

[3] = test system: MOLT-13 (T-Lymphoblastic Leukemia); assay: as above
Outline: as §1

[4] = test system: P30-OHK (B-Lymphoblastic Leukemia); assay: combination Emax (second highest fraction inhibited in the dose matrix, 72 h); higher = more inhibition; extreme values may be limits of the assay
Outline: as §1

[5] = test system: RCC-JW (Kidney Carcinoma); assay: as above
Outline: as §1

[6] = test system: Raji (Burkitt's Lymphoma); assay: as above
Outline: as §1

NB1 (Neuroblastoma) = assay: as above
Outline: as §1

[7] = test system: NAMALWA (Burkitt's Lymphoma); assay: as above
Outline: as §1

[8] = test system: ZR-75-30 (Breast Carcinoma); assay: as above
Outline: as §1

[9] = test system: NCI-H1963 (Small Cell Lung Carcinoma); assay: as above
Outline: as §1

[10] = test system: MDA-MB-415 (Breast Carcinoma); assay: as above
Outline: as §1

[11] = test system: SNU-423 (Hepatocellular Carcinoma); assay: as above
Outline: as §1

UACC-257 (Melanoma) = assay: as above
Outline: as §1

[12] = test system: MM1S (Plasma Cell Myeloma); assay: as above
Outline: as §1

[13] = test system: LCLC-103H (Non-Small Cell Lung Carcinoma); assay: as above
Outline: as §1

[14] = test system: NCI-H1876 (Small Cell Lung Carcinoma); assay: as above
Outline: as §1

WM35 (Melanoma) = assay: as above
Outline: as §1

[15] = test system: SNU-C2B (Colorectal Carcinoma); assay: as above
Outline: as §1

AM-38 (Glioblastoma) = assay: as above
Outline: as §1

[16] = test system: PA-TU-8988T (Pancreatic Carcinoma); assay: as above
Outline: as §1

Row | SMILES | Bliss excess [1] | Bliss excess [2] | Bliss excess [3] | combination Emax [4] | combination Emax [5] | combination Emax [6] | combination Emax (NB1 (Neuroblastoma)) | combination Emax [7] | combination Emax [8] | combination Emax [9] | combination Emax [10] | combination Emax [11] | combination Emax (UACC-257 (Melanoma)) | combination Emax [12] | combination Emax [13] | combination Emax [14] | combination Emax (WM35 (Melanoma)) | combination Emax [15] | combination Emax (AM-38 (Glioblastoma)) | combination Emax [16]
1 | C[C@@H](c1ccc2nccn2c1)n1nnc2ncc(-c3cnn(C)c3)nc21 [Savolitinib] + CC1(C)CCC(CN2CCN(c3ccc(C(=O)NS(=O)(=O)c4ccc(NCC5CCOCC5)c([N+](=O)[O-])c4)c(Oc4cnc5[nH]ccc5c4)c3)CC2)=C(c2ccc(Cl)cc2)C1 [Venetoclax] (first compound max 1 µM, 7x7, partner max 1 µM) | -0.0258 | -0.0341 | -0.0181 | 0.163 | 0.124 | 0.171 | 0.0333 | 0.213 | 0.127 | 0.422 | 0.261 | 0.233 | 0.104 | 0.116 | 0.146 | 0.0954 | 0.162 | 0.0589 | 0.0558 | 0.165
2 | C[C@@H](c1ccc2nccn2c1)n1nnc2ncc(-c3cnn(C)c3)nc21 [Savolitinib] + Cc1c2c(nn1C)CSCc1cc(n(C)n1)CSc1cc(c3ccccc3c1)OCCCc1c(C(=O)O)n(C)c3c-2c(Cl)ccc13 [AZD5991] (first compound max 1 µM, 7x7, partner max 1 µM) | -0.0462 | -0.0307 | -0.0368 | 0.683 | 0.106 | 0.751 | 0.175 | 0.956 | 0.248 | 0.192 | 0.344 | 0.2 | 0.151 | 0.225 | 0.211 | 0.32 | 0.154 | 0.187 | 0.244 | 0.243
3 | Cn1cnc2c(F)c(Nc3ccc(Br)cc3Cl)c(C(=O)NOCCO)cc21 [Selumetinib] + C=CCn1c(=O)c2cnc(Nc3ccc(N4CCN(C)CC4)cc3)nc2n1-c1cccc(C(C)(C)O)n1 [AZD1775] (first compound max 10 µM, partner max 1 µM) | -0.0754 | -0.0417 | 0.0535 | 0.675 | 0.16 | 0.681 | 0.84 | 0.966 | 0.134 | 0.913 | 0.23 | 0.396 | 0.607 | 0.746 | 0.43 | 0.982 | 0.686 | 0.463 | 0.563 | 0.805
4 | Cn1cnc2c(F)c(Nc3ccc(Br)cc3Cl)c(C(=O)NOCCO)cc21 [Selumetinib] + CC(C)n1c(=O)n(C)c2cnc3cc(F)c(-c4ccc(OCCCN5CCCCC5)nc4)cc3c21 [AZD1390] (first compound max 10 µM, 7x7, partner max 0.3 µM) | -0.047 | -0.0429 | 0.0447 | 0.217 | 0.0923 | 0.233 | 0.127 | 0.136 | 0.0506 | 0.303 | 0.222 | 0.275 | 0.568 | 0.264 | 0.138 | 0.272 | 0.65 | 0.29 | 0.437 | 0.321
5 | Cn1cnc2c(F)c(Nc3ccc(Br)cc3Cl)c(C(=O)NOCCO)cc21 [Selumetinib] + CCN(CCO)CCCOc1ccc2c(Nc3cc(CC(=O)Nc4cccc(F)c4)[nH]n3)ncnc2c1 [AZD2811] (first compound max 10 µM, 7x7, partner max 1 µM) | -0.0064 | -0.0267 | 0.0312 | 0.835 | 0.132 | 0.0936 | 0.566 | 0.336 | 0.111 | 0.902 | 0.248 | 0.264 | 0.68 | 0.283 | 0.376 | 0.792 | 0.664 | 0.335 | 0.542 | 0.321
6 | Cn1cnc2c(F)c(Nc3ccc(Br)cc3Cl)c(C(=O)NOCCO)cc21 [Selumetinib] + C[C@@H]1COCCN1C2=NC(=NC(=C2)C3(CC3)[S@](=N)(=O)C)C4=C5C=CNC5=NC=C4 [AZD6738] (first compound max 10 µM, 7x7, partner max 10 µM) | -0.0395 | -0.0174 | 0.106 | 0.889 | 0.386 | 0.722 | 0.783 | 0.918 | 0.111 | 0.855 | 0.458 | 0.285 | 0.595 | 0.475 | 0.324 | 0.895 | 0.767 | 0.468 | 0.706 | 0.466
7 | CC(=O)Nc1cccc(-n2c(=O)n(C3CC3)c(=O)c3c(Nc4ccc(I)cc4F)n(C)c(=O)c(C)c32)c1 [Trametinib] + Cc1nc(-c2cn3c(n2)-c2ccc(-c4cnn(C(C)(C)C(N)=O)c4)cc2OCC3)n(C(C)C)n1 [Taselisib] (first compound max 1 µM, 7x7, partner max 10 µM) | -0.0162 | 0.115 | 0.153 | 0.49 | 0.556 | 0.144 | 0.995 | 0.589 | 0.667 | 0.435 | 0.848 | 0.827 | 0.806 | 1 | 0.539 | 0.796 | 0.97 | 0.676 | 0.909 | 0.762
8 | CC1(C)CCC(CN2CCN(c3ccc(C(=O)NS(=O)(=O)c4ccc(NCC5CCOCC5)c([N+](=O)[O-])c4)c(Oc4cnc5[nH]ccc5c4)c3)CC2)=C(c2ccc(Cl)cc2)C1 [Venetoclax] + C1CN(CCC1(C(=O)N[C@@H](CCO)C2=CC=C(C=C2)Cl)N)C3=NC=NC4=C3C=CN4 [Capivasertib] (first compound max 1 µM, 7x7, partner max 3 µM) | -0.102 | -0.0312 | 0.0354 | 0.678 | 0.157 | 0.132 | 0.755 | 0.534 | 0.312 | 0.775 | 0.663 | 0.393 | 0.123 | 0.978 | 0.238 | 0.259 | 0.178 | 0.25 | 0.0317 | 0.219
9 | CC1(C)CCC(CN2CCN(c3ccc(C(=O)NS(=O)(=O)c4ccc(NCC5CCOCC5)c([N+](=O)[O-])c4)c(Oc4cnc5[nH]ccc5c4)c3)CC2)=C(c2ccc(Cl)cc2)C1 [Venetoclax] + C=CCn1c(=O)c2cnc(Nc3ccc(N4CCN(C)CC4)cc3)nc2n1-c1cccc(C(C)(C)O)n1 [AZD1775] (first compound max 1 µM, partner max 1 µM) | -0.028 | -0.0626 | 0.0723 | 0.992 | 0.286 | 0.725 | 0.889 | 0.975 | 0.159 | 0.973 | 0.206 | 0.732 | 0.185 | 0.908 | 0.394 | 0.994 | 0.165 | 0.609 | 0.289 | 0.728
10 | CC1(C)CCC(CN2CCN(c3ccc(C(=O)NS(=O)(=O)c4ccc(NCC5CCOCC5)c([N+](=O)[O-])c4)c(Oc4cnc5[nH]ccc5c4)c3)CC2)=C(c2ccc(Cl)cc2)C1 [Venetoclax] + CCN(CCO)CCCOc1ccc2c(Nc3cc(CC(=O)Nc4cccc(F)c4)[nH]n3)ncnc2c1 [AZD2811] (first compound max 1 µM, 7x7, partner max 1 µM) | -0.0081 | -0.0256 | 0.055 | 1 | 0.184 | 0.122 | 0.606 | 0.56 | 0.11 | 0.893 | 0.231 | 0.229 | 0.226 | 0.265 | 0.333 | 0.742 | 0.152 | 0.185 | 0.221 | 0.0634
11 | CC1(C)CCC(CN2CCN(c3ccc(C(=O)NS(=O)(=O)c4ccc(NCC5CCOCC5)c([N+](=O)[O-])c4)c(Oc4cnc5[nH]ccc5c4)c3)CC2)=C(c2ccc(Cl)cc2)C1 [Venetoclax] + CN(C)CCCOc1ccc(-c2ccc3ncc4c(c3c2)n(C2CCOCC2)c(=O)n4C)cn1 [AZD0156] (first compound max 1 µM, 7x7, partner max 1 µM) | -0.0869 | -0.0272 | 0.0928 | 0.458 | 0.184 | 0.244 | 0.145 | 0.613 | 0.105 | 0.565 | 0.262 | 0.271 | 0.177 | 0.221 | 0.285 | 0.282 | 0.135 | 0.156 | 0.209 | 0.179
12 | CC1(C)CCC(CN2CCN(c3ccc(C(=O)NS(=O)(=O)c4ccc(NCC5CCOCC5)c([N+](=O)[O-])c4)c(Oc4cnc5[nH]ccc5c4)c3)CC2)=C(c2ccc(Cl)cc2)C1 [Venetoclax] + COc1cc(Nc2ncc3c(n2)-c2ccc(Cl)cc2C(c2c(F)cccc2OC)=NC3)ccc1C(=O)O [Alisertib] (first compound max 1 µM, 7x7, partner max 10 µM) | -0.0711 | -0.0636 | 0.0148 | 1 | 0.286 | 0.252 | 0.561 | 0.661 | 0.137 | 0.949 | 0.379 | 0.361 | 0.191 | 0.423 | 0.539 | 0.866 | 0.152 | 0.291 | 0.41 | 0.403
